Results from paper PMC11378297, “Discovery and Profiling of New Multimodal Phenylglycinamide Derivatives as Potent Antiseizure and Antinociceptive Drug Candidates” (ACS Chemical Neuroscience, 2024).
Read-outs that look alike come from different tables or passages of the source.

Assays:
[1] = target: T1, Voltage-Gated Sodium channel hNav1.2 (Homo sapiens, UniProt Q99250); assay: human sodium ion channel cell based automated patch clamp assay, hNav1.2
T1 construct: Eurofins Discovery (St. Charles, MO, USA)
T1 sequence (Q99250 whole entry): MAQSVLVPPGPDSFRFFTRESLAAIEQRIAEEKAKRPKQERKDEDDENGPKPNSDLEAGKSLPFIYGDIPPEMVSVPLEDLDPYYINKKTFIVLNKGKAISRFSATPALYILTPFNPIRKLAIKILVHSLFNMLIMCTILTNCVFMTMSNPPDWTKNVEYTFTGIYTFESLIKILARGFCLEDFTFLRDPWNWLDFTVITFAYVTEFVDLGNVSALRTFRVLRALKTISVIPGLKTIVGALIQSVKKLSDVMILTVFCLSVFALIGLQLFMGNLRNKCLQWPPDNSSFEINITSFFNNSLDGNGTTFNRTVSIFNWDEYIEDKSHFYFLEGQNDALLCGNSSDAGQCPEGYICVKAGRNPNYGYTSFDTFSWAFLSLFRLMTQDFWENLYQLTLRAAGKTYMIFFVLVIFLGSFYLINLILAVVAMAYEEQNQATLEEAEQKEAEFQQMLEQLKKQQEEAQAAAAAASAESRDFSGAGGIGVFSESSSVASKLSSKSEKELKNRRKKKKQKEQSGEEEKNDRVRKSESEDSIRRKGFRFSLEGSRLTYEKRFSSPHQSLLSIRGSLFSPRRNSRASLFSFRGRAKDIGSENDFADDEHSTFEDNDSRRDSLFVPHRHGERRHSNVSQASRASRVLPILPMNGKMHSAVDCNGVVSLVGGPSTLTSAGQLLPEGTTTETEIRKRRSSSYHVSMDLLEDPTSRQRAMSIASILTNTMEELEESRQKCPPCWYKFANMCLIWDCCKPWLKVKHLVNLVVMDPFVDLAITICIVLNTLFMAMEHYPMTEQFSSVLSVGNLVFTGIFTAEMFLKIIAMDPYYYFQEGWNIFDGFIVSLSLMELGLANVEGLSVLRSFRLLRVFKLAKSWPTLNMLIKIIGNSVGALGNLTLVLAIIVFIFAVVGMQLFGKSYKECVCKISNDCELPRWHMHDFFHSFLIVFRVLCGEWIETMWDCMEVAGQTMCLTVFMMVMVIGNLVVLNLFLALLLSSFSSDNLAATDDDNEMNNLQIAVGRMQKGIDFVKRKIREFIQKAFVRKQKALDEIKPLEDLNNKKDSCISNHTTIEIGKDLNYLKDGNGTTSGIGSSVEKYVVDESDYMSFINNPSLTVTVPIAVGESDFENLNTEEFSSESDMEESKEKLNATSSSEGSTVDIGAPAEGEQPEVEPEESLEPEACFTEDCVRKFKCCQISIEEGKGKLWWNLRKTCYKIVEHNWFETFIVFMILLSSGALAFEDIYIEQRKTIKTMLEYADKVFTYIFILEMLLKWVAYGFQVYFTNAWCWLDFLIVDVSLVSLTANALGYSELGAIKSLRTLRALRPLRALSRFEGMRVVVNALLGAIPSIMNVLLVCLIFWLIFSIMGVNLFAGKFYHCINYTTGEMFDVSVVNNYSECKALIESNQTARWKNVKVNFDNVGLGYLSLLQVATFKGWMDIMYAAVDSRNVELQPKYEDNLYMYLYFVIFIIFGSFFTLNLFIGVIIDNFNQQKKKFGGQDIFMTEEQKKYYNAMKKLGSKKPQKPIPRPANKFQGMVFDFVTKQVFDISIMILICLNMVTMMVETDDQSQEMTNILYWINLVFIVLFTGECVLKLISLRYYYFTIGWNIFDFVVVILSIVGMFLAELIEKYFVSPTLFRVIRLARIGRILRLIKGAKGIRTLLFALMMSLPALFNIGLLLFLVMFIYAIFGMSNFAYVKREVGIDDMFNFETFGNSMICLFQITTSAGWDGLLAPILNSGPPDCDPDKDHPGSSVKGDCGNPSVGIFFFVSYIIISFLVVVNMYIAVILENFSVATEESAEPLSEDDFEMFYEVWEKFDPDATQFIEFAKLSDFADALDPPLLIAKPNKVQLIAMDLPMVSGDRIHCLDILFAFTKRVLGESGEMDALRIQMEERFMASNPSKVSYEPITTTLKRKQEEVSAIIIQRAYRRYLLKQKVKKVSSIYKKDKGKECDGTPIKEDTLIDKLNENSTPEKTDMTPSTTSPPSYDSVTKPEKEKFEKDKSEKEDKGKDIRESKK
Method: Therefore, as a part of the more detailed functional characterization using automated patch clamp method, we tested the influence of (R)-32 on sodium currents mediated by several Navx channels comprising 5 different human subunits, namely, Nav1.1, Nav1.2, Nav1.3, Nav1.6, and Nav1.7, which are involved in both seizure and/or pain modulation.[74],[80],[81] As summarized in Tables S4–S8, (R)-32 starting from 10 μM effectively and in concentration-dependent manner decreased sodium currents mediated by all aforementioned sodium channel subunits. Furthermore, (R)-32 appeared to bind exclusively to sodium channels that are in an inactivated state (see pulse 2 in Tables S4–S8), but not to the channels that are in an open state (pulse 1) (for additional details, see Supporting Information).
Human sodium ion channels cell based automated patch clamp assay
Human sodium ion channels cell based automated patch clamp assays: sodium channels exist in, a) a resting or closed state at -120 mV, b) a transient open state that inactivates to c) inactivated state at -10 mV. Sodium current inhibition within 1-2 ms of channel opening at 0 mV is open channel inhibition (pulse 1). In order to completely inactivate the sodium channels and facilitate inactivated state-dependent binding of the drug, the channels were kept at […] ( -10 mV) longer (pulsed for 500 ms) and then stepped back to -120 mV for 10 ms to recover from inactivation into resting or closed state (but the channels that had drug bound to them will not recover from inactivation and will not open) before stepping to -10 mV for 50 ms (pulse 2) to mea sure sodium channels that are available to open. The higher inhibition seen at pulse 2 is due to inactivated state -dependent inhibition. Pulse 1 and 2 are used to investigate drug binding to the open state and inactivated state of the Na channels, respectively. Each concentration of compound is applied for 5 minutes. The results obtained for (R)-32 are summerized in Tables S4–S8. […]
Compound Concentration Measurement % Inhibition
Data interpretation: Results showing inhibition greater than 50% are considered to represent significant effects of test compound and have been bolded for (R)-32 for better visualization. The studies were carried out in Eurofins Discovery (St. Charles, MO, USA).

[2] = test system: capsaicin-induced pain, mice; assay: capsaicin-induced pain test; type: in vivo; details: Mus musculus, ip, 30 min before capsaicin
[3] = test system: formalin-induced pain, mice; assay: formalin test; type: in vivo, mouse
[4] = target: T2, Voltage-Gated Sodium channel hNav1.7 (Homo sapiens, UniProt Q15858); assay: human sodium ion channel cell based automated patch clamp assay, hNav1.7
T2 construct: Eurofins Discovery (St. Charles, MO, USA)
T2 sequence (Q15858 whole entry): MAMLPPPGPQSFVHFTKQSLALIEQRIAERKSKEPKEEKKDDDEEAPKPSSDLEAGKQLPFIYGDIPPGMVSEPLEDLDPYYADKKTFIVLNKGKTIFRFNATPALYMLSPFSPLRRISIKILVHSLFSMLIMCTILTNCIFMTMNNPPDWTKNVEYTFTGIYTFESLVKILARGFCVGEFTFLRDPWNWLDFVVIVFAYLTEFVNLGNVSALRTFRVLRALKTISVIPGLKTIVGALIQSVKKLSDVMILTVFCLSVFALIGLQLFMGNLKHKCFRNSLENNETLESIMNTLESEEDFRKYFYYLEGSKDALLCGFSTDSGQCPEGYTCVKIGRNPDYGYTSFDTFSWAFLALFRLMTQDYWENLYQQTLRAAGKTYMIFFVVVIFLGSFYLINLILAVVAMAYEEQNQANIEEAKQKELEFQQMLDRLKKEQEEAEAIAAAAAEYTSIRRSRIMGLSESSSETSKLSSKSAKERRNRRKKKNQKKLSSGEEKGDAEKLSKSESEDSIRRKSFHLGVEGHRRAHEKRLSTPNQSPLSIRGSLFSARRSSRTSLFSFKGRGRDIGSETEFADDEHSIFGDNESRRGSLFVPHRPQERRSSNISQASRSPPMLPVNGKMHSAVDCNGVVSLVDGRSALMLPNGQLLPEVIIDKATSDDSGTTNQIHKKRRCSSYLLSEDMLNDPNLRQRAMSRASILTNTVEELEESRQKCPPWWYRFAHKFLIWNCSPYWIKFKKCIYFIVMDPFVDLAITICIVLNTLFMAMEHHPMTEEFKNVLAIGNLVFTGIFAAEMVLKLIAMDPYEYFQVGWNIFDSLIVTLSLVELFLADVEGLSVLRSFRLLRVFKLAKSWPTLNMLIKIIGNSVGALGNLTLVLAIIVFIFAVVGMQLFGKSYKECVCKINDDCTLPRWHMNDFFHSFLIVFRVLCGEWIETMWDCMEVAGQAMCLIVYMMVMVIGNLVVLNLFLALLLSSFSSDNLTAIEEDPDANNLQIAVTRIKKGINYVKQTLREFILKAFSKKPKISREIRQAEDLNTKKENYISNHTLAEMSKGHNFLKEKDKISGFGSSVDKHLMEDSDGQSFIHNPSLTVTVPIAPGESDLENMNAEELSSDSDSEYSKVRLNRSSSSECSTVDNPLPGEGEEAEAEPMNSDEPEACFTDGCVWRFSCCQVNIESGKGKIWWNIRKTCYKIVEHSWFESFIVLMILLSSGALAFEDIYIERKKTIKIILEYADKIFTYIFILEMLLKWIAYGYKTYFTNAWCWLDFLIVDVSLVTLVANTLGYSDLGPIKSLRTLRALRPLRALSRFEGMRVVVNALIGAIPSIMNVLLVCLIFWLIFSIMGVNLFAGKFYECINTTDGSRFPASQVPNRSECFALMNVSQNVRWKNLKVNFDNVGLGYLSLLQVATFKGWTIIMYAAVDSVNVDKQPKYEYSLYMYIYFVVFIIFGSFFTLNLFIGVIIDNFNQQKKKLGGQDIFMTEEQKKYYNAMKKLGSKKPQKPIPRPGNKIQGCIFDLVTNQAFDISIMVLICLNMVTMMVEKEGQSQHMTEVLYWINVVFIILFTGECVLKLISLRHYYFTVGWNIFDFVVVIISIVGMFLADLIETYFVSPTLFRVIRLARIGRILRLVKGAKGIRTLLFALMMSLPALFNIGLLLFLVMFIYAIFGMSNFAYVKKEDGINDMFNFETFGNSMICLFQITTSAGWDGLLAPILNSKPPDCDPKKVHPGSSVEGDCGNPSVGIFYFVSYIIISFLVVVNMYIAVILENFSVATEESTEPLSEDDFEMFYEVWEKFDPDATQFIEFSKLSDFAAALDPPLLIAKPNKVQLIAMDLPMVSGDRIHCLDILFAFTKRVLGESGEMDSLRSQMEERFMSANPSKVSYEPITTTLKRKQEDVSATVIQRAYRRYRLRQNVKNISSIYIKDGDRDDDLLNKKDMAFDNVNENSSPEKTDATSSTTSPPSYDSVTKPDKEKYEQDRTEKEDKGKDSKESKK
Source text: Human sodium ion channels cell based automated patch clamp assays: sodium channels exist in, a) a resting or closed state at -120 mV, b) a transient open state that inactivates to c) inactivated state at -10 mV. Sodium current inhibition within 1-2 ms of channel opening at 0 mV is open channel inhibition (pulse 1). In order to completely inactivate the sodium channels and facilitate inactivated state-dependent binding of the drug, the channels were kept at open state ( -10 mV) longer (pulsed for 500 ms) and then stepped back to -120 mV for 10 ms to recover from inactivation into resting or closed
open) before stepping to -10 mV for 50 ms (pulse 2) to mea sure sodium channels that are available to open. […] Pulse 1 and 2 are used to investigate drug binding to the open state and inactivated state of the Na channels, respectively. Each concentration of compound is applied for 5 minutes.
Voltage-Gated Sodium channel hNav1.1

[5] = test system: STZ-induced tactile allodynia, mice; assay: streptozotocin (STZ)-induced peripheral neuropathy, von Frey test; type: in vivo, mouse; details: 21 days after STZ
Source text: To test whether the compounds are active in the neuropathic pain resulting from another mechanism of neuronal injury, we tested them in streptozotocin (STZ)-induced neuropathy. STZ is the commonly used experimental model to induce diabetic neuropathy. Streptozotocin is toxic to insulin-producing beta cells in the pancreas and selectively damages these cells, leading to insulin deficiency, which subsequently results in chronic hyperglycemia. Hyperglycemia is a major factor in the development of diabetic neuropathy. Elevated blood glucose levels increase its uptake by nerve cells, which results in metabolic and oxidative stress. Moreover, hyperglycemia leads to the formation of advanced glycation end products (AGEs), which are abnormal protein structures. AGEs can accumulate in neuronal tissue and contribute to nerve dysfunction.[63] […] Additionally, STZ-induced neuropathic pain may also involve alterations in the levels of neurotransmitters such as glutamate and GABA.[64],[65]
Each animal was tested only once. […] Behavioral measurements were observed by trained observers.

TRPM8 (h) = target: T3, TRPM8 (h) (Homo sapiens, UniProt Q7Z2W7); assay: TRPM8 (h) (antagonist effect); type: cell-based; details: HEK293, human recombinant HEK-293 cell, read-out: % inhibition of control agonist response
T3 construct: Eurofins
T3 sequence (Q7Z2W7 whole entry): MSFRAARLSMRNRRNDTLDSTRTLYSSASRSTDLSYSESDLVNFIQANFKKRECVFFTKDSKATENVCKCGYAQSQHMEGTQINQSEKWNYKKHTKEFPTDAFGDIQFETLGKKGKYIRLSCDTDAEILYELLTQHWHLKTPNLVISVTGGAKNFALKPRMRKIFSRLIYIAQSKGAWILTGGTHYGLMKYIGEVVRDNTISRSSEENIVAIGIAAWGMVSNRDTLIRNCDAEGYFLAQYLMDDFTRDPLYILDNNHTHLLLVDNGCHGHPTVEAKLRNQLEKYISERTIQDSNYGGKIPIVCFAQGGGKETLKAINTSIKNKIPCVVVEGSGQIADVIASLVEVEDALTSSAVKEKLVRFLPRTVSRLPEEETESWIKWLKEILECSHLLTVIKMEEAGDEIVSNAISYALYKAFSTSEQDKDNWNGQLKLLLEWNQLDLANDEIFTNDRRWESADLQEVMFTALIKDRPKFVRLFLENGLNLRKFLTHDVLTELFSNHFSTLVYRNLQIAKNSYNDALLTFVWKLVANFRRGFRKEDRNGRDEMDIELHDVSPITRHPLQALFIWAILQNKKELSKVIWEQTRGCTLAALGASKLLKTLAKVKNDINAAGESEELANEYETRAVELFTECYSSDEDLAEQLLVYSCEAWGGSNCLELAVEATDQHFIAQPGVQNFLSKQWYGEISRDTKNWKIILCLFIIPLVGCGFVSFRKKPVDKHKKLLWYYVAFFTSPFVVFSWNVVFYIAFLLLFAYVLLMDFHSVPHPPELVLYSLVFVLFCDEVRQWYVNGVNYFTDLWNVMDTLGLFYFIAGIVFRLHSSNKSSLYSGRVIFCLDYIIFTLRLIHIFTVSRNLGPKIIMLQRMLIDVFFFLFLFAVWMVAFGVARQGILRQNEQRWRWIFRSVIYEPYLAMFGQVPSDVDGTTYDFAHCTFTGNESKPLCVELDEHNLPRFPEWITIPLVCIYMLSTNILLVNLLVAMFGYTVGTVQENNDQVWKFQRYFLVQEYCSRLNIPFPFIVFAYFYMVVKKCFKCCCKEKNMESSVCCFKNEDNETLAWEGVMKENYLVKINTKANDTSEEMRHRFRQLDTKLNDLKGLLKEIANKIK
Method: Using previously described testing methodologies, binding/functional tests were conducted on a commercial basis at Eurofins Laboratories (Poitiers, France) and Eurofins Panlabs Discovery Services Taiwan, Ltd. (New Taipei City, Taiwan); see Table S9 for more information.
Table S9. Radioligand binding and functional assays. […]
TRPM8 (h) (antagonist effect) […]
Assays were performed commercially in Eurofins Laboratories (Poitiers, France) or Eurofins Panlabs Discovery Services
Taiwan, Ltd. (New Taipei City, Taiwan).

[6] = hNav1.2, Pulse 1 (open state), read-out: % Inhibition Mean
[7] = hNav1.2, Pulse 1 (open state), read-out: % Inhibition n1
[8] = hNav1.2, Pulse 1 (open state), read-out: % Inhibition n2
[9] = hNav1.2, Pulse 2 (inactivated state), read-out: % Inhibition Mean
[10] = hNav1.2, Pulse 2 (inactivated state), read-out: % Inhibition n1
[11] = hNav1.2, Pulse 2 (inactivated state), read-out: % Inhibition n2
[12] = hNav1.7, Pulse 1 (open state), read-out: % Inhibition Mean
[13] = hNav1.7, Pulse 1 (open state), read-out: % Inhibition n1
[14] = hNav1.7, Pulse 1 (open state), read-out: % Inhibition n2
[15] = hNav1.7, Pulse 2 (inactivated state), read-out: % Inhibition Mean
[16] = hNav1.7, Pulse 2 (inactivated state), read-out: % Inhibition n1
[17] = hNav1.7, Pulse 2 (inactivated state), read-out: % Inhibition n2

In the case of `CC(=O)N[C@@H](C(=O)N1CCN(c2cccc(OC(F)(F)F)c2)CC1)c1ccccc1` [(R)-32, (R)-N-(2-Oxo-1-phenyl-2-(4-(3-(trifluoromethoxy)phenyl)piperazin-1-yl)ethyl)acetamide], the inhibition at 1 µM [1, 6] is reported as 0.79%, the inhibition at 1 µM [1, 7] is reported as 1.86% and the inhibition at 1 µM [1, 8] is reported as -0.29%. For the same compound, the inhibition at 10 µM [1, 6] was 3.6%, the inhibition at 10 µM [1, 7] was 2.03% and the inhibition at 10 µM [1, 8] was 5.18%. It also gave an inhibition at 100 µM [1, 6] of 33.5%, an inhibition at 100 µM [1, 7] of 35.7% and an inhibition at 100 µM [1, 8] of 31.3%. The inhibition at 1 µM [1, 9] was 1.62%, the inhibition at 1 µM [1, 10] was 1.9% and the inhibition at 1 µM [1, 11] was 1.33%. It also gave an inhibition at 10 µM [1, 9] of 41.9%, an inhibition at 10 µM [1, 10] of 45.5% and an inhibition at 10 µM [1, 11] of 38.2%. For the same compound, the inhibition at 100 µM [1, 9] was 100%, the inhibition at 100 µM [1, 10] was 100% and the inhibition at 100 µM [1, 11] was 100%. The ED50 [2] was 20.2 mg/kg, the “nociceptive response, acute phase of the formalin test” value ([3]; 100 mg/kg i.p., 0–5 min after formalin) was “decreased the nociceptive response” and the “nociceptive reaction, second phase of the formalin test” value ([3]; 25, 50 and 100 mg/kg i.p.) was “inhibited nociceptive reaction at all tested doses”. For the same compound, the ED50 ([3]; Mus musculus, ip, mice, i.p., phase II, read-out: ED50 in the late phase of the formalin test) was 35.7 mg/kg, the inhibition at 1 µM [4, 12] was -5.74% and the inhibition at 1 µM [4, 13] was -4.13%. It also gave an inhibition at 1 µM [4, 14] of -7.35%, an inhibition at 10 µM [4, 12] of 6.15% and an inhibition at 10 µM [4, 13] of -0.03%. It also gave an inhibition at 10 µM [4, 14] of 12.3%, an inhibition at 100 µM [4, 12] of 22.9% and an inhibition at 100 µM [4, 13] of 19.2%. It also gave an inhibition at 100 µM [4, 14] of 26.5%, an inhibition at 1 µM [4, 15] of -3.08% and an inhibition at 1 µM [4, 16] of -3.09%. It also gave an inhibition at 1 µM [4, 17] of -3.07%, an inhibition at 10 µM [4, 15] of 37.8% and an inhibition at 10 µM [4, 16] of 35.3%. For the same compound, the inhibition at 10 µM [4, 17] was 40.4%, the inhibition at 100 µM [4, 15] was 98.4% and the inhibition at 100 µM [4, 16] was 98.7%. For the same compound, the inhibition at 100 µM [4, 17] was 98%, the “pain threshold in STZ-induced neuropathy, % of the baseline” value (shortened to “pain threshold … % of the baseline”) ([5]; 25 mg/kg i.p.) was 113% and the “pain threshold … % of the baseline” value ([5]; 50 mg/kg i.p.) was 120%. The “pain threshold … % of the baseline” value ([5]; 100 mg/kg i.p.) was 134% and the inhibition at 10 µM (TRPM8 (h)) was 12.6%.
